Data reported in ChEMBL document CHEMBL1201862, “PubChem BioAssay data set” (2004).
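Compound exposure: 48 hours, 5 concentrations, 96-well plates. The concentration for 50% growth inhibition is given as GI50.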 The source made the active and inactive calls. Cut-off read from the data, not from the text of the source: active = GI50 up to about 1.1 µM and inactive = higher.

Assays:
Assay in all cases: NCI tumour cell line growth inhibition, 48 h
SNB-75 = system: SNB-75
SK-MEL-2 = system: SK-MEL-2
OVCAR-8 = system: OVCAR-8
KM12 = system: KM12
SK-MEL-28 = system: SK-MEL-28
OVCAR-3 = system: OVCAR-3
COLO 205 = system: COLO 205
OVCAR-5 = system: OVCAR-5
HT-29 = system: HT-29
HOP-92 = system: HOP-92
SF-539 = system: SF-539
MCF7 = system: MCF7
NCI-H522 = system: NCI-H522
HCT-15 = system: HCT-15
SN12C = system: SN12C
MDA-N = system: MDA-N
MOLT-4 = system: MOLT-4
NCI/ADR-RES = system: NCI/ADR-RES
K562 = system: K562
786-0 = system: 786-0
MDA-MB-231 = system: MDA-MB-231
IGROV-1 = system: IGROV-1
SK-MEL-5 = system: SK-MEL-5
TK-10 = system: TK-10
LOX IMVI = system: LOX IMVI
U-251 = system: U-251
A549 = system: A549
SR = system: SR
SF-295 = system: SF-295
HL-60 = system: HL-60
SW-620 = system: SW-620
T47D = system: T47D
UO-31 = system: UO-31
RPMI-8226 = system: RPMI-8226
Malme-3M = system: Malme-3M
HCC 2998 = system: HCC 2998
M14 = system: M14
BT-549 = system: BT-549
MDA-MB-435 = system: MDA-MB-435
PC-3 = system: PC-3
UACC-257 = system: UACC-257
DU-145 = system: DU-145
SF-268 = system: SF-268
A498 = system: A498
CAKI-1 = system: CAKI-1
SK-OV-3 = system: SK-OV-3
ACHN = system: ACHN
EKVX = system: EKVX
RXF 393 = system: RXF 393
OVCAR-4 = system: OVCAR-4
NCI-H226 = system: NCI-H226
UACC-62 = system: UACC-62
HCT-116 = system: HCT-116
CCRF-CEM = system: CCRF-CEM
HOP-62 = system: HOP-62
NCI-H23 = system: NCI-H23
NCI-H460 = system: NCI-H460
SNB-19 = system: SNB-19
Hs-578T = system: Hs-578T

CNc1cc2c(c3ccccc13)C(CCl)CN2C(=O)c1cc2cc(OC)c(OC)c(OC)c2[nH]1 (centres undefined)
GI50 (SNB-75): 2.52 nM (active) | GI50 (SK-MEL-2): 7.85 nM (active) | GI50 (OVCAR-8): 1.23 nM (active) | GI50 (KM12): 3.8 nM (active) | GI50 (SK-MEL-28): 12.2 nM (active) | GI50 (OVCAR-3): 22.6 nM (active) | GI50 (COLO 205): 2.27 nM (active) | GI50 (OVCAR-5): 5.2 nM (active) | GI50 (HT-29): 1.3 nM (active) | GI50 (HOP-92): 4.84 nM (active) | GI50 (SF-539): 1.96 nM (active) | GI50 (MCF7): 0.822 nM (active) | GI50 (NCI-H522): < 10 nM (active) | GI50 (HCT-15): 1.37 nM | GI50 (SN12C): 0.881 nM (active) | GI50 (MDA-N): 2.43 nM (active) | GI50 (MOLT-4): 0.53 nM (active) | GI50 (NCI/ADR-RES): 0.991 nM (active) | GI50 (K562): 1.88 nM (active) | GI50 (786-0): 0.809 nM (active) | GI50 (MDA-MB-231): 7.4 nM (active) | GI50 (IGROV-1): 2.43 nM (active) | GI50 (SK-MEL-5): 1.46 nM (active) | GI50 (TK-10): 2.18 nM (active) | GI50 (LOX IMVI): 1.06 nM (active) | GI50 (U-251): 1.91 nM (active) | GI50 (A549): 1.53 nM (active) | GI50 (SR): 0.275 nM (active) | GI50 (SF-295): 1.55 nM (active) | GI50 (HL-60): 0.123 nM (active) | GI50 (SW-620): 1.44 nM (active) | GI50 (T47D): 3.22 nM (active) | GI50 (UO-31): 2.23 nM (active) | GI50 (RPMI-8226): 4.55 nM (active) | GI50 (Malme-3M): < 10 nM (active) | GI50 (HCC 2998): < 10 nM (active) | GI50 (M14): 2.35 nM (active) | GI50 (BT-549): 8.81 nM (active) | GI50 (MDA-MB-435): 3.09 nM (active) | GI50 (PC-3): 2.14 nM (active) | GI50 (UACC-257): 5.41 nM (active) | GI50 (DU-145): 0.442 nM (active) | GI50 (SF-268): 1.7 nM (active) | GI50 (A498): 2.61 nM (active) | GI50 (CAKI-1): 0.703 nM (active) | GI50 (SK-OV-3): 11.6 nM (active) | GI50 (ACHN): 0.124 nM (active) | GI50 (EKVX): 3.81 nM (active) | GI50 (RXF 393): < 10 nM (active) | GI50 (OVCAR-4): < 10 nM (active) | GI50 (NCI-H226): 13.8 nM (active) | GI50 (UACC-62): 0.588 nM (active) | GI50 (HCT-116): 1.06 nM (active) | GI50 (CCRF-CEM): 0.53 nM (active) | GI50 (HOP-62): 2.81 nM (active) | GI50 (NCI-H23): 0.465 nM (active) | GI50 (NCI-H460): 0.212 nM (active) | GI50 (SNB-19): 12.4 nM (active) | GI50 (Hs-578T): 8.02 nM (active)
